Measurements from article PMC4182326, “Synthesis and Characterization of Novel 2-Amino-Chromene-Nitriles that Target Bcl-2 in Acute Myeloid Leukemia Cell Lines” (PLoS ONE, 2014).

Experiments:
[1] = molecular target: T1, Bcl-2 (Homo sapiens, UniProt P10415); experiment: Zymed Bcl-2 ELISA; % inhibition of Bcl-2 binding to its antibody at […]
T1 construct: gene BCL2

[2] = molecular target: T1, Bcl-2; experiment: Zymed Bcl-2 ELISA; inhibition of Bcl-2 binding to its antibody

T1 sequence (P10415 whole entry): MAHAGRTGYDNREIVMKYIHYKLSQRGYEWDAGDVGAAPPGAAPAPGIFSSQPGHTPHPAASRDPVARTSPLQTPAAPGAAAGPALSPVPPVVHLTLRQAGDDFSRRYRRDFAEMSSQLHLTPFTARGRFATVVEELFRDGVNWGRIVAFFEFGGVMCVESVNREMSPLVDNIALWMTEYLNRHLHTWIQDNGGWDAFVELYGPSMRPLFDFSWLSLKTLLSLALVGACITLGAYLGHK

Compound | inhibition at 30 µM [1] | IC50 [2]
N#CC1=C(N)Oc2cc3ccccc3cc2C1c1ccc(F)cc1 (stereo not shown) [4h, 2-amino-4-(4-fluorophenyl)-4H-benzo[g]chromene-3-carbonitrile] | 53% | 
N#CC1=C(N)Oc2cc3ccccc3cc2C1c1cccc([N+](=O)[O-])c1 (stereo not shown) [4a, 2-amino-4-(3-nitrophenyl)-4H-benzo[g]chromene-3-carbonitrile] | 37.8% | 
N#CC1=C(N)Oc2cc3ccccc3cc2C1c1c(Cl)cccc1Cl (stereo not shown) [4g, 2-amino-4-(2,6-dichlorophenyl)-4H-benzo[g]chromene-3-carbonitrile] |  | 17.8 µM
N#CC1=C(N)Oc2cc3ccccc3cc2C1c1ccccc1[N+](=O)[O-] (stereo not shown) [4f, 2-amino-4-(2-nitrophenyl)-4H-benzo[g]chromene-3-carbonitrile] | 61.9% | 
